Data from patent US7893064B2, “Hydrazone derivatives as kinase inhibitors” (Janssen Pharmaceutica NV, priority 2006, dated 2011).

Legend:
[1] = system: BT474 breast carcinoma cells; test: Cell Proliferation Inhibition Assay (14C-thymidine incorporation), BT-474; type: cell-based; conditions: Homo sapiens, BT-474 cells
Excerpt: (§1) The ability of a test compound to inhibit unregulated cell proliferation may be determined by measuring incorporation of ^14C-labelled thymidine into newly synthesized DNA within cell lines derived from carcinomas originating from several tissues. Accordingly, the anti-proliferative effect of a compound on cells with a variety of phenotypes may be determined.
(§2) Carcinoma cell lines were obtained from the American Type Culture Collection (ATCC) and include those such as N87 (ATCC Cat. #), SKBR3 breast carcinoma (ATCC Cat. #HTB-30) and BT474 breast carcinoma (ATCC Cat. #HTB-20)
(§3) The carcinoma cells are trypsinized and counted. The cells (3000-8000 count) are added to each well of a 96-well CytoStar tissue culture treated scintillating microplate (Amersham #RPNQ0160) in complete medium (100 μL) and the plate is then incubated in complete medium for 24 hrs at 37° C. in an inert atmosphere containing 5% CO2. Test compound (1 μL) in 100% DMSO is added to the plate test-wells with DMSO only added to control-wells. The plate is incubated in complete medium for a second 24 hr period at 37° C. in an atmosphere containing 5% CO2.
(§4) An aliquot of a solution of Methyl ^14C-thymidine (56 mC/mmol) (NEN #NEC568 or Amersham #CFA532) and complete medium (20 μL to provide 0.2 μCi/well) is then added to each well and the plate is incubated for a third 24 hr period at 37° C. in an atmosphere containing 5% CO2. The plate contents are then discarded, the plate is washed twice with PBS (200 μL) and then PBS (200 μL) is added to each well. The plate is sealed and the degree of methyl ^14C-thymidine incorporation is quantified on a Packard Top Count.

[2] = system: SKBR3 breast carcinoma cells; test: Cell Proliferation Inhibition Assay (14C-thymidine incorporation), SK-BR-3; type: cell-based; conditions: Homo sapiens, SK-BR-3 cells
Excerpt: as §1, §2, §3, §4

N87 carcinoma cells = test: Cell Proliferation Inhibition Assay (14C-thymidine incorporation), N87; type: cell-based
Excerpt: as §1, §2, §3, §4

[3] = biological target: T1, HER2 (GST-HIS6-Thrombin fusion, amino acids 679 to 1255 of HER-2) (Homo sapiens, UniProt P04626); test: HER2 Screening Assay; type: biochemical; conditions: 10 μM ATP, biotin-poly(GT) 4:1, 33P FlashPlate
T1 construct: GST (N); HIS6 (N); thrombin cleavage site (N); purchased Proqinase, Freiburg, Germany
T1 sequence (P04626 679-1255): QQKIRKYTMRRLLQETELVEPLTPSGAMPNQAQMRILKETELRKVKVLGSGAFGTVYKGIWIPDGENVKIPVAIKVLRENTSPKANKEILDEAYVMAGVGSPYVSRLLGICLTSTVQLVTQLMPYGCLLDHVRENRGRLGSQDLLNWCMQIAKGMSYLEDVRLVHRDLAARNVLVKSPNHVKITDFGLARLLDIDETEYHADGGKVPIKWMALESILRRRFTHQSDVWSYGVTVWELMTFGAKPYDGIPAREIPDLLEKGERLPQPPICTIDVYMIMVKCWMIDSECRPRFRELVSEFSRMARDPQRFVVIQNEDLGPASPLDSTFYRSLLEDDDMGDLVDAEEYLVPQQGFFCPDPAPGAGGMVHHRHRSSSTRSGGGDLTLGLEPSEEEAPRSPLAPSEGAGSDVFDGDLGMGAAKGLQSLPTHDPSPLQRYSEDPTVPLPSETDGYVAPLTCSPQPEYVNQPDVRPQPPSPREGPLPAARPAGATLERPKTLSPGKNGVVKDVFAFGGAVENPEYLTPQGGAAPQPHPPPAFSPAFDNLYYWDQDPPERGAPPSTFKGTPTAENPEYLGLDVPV
Procedure: A kinase reaction mixture was prepared containing 50 mM Tris-HCl pH=8, 10 mM MgCl2, 0.1 mM […], 1 mM DTT, 10 μM ATP, 0.025 μM biotinylated histone-H1 peptide substrate and 0.2 μCuries per well ^33P-γ-ATP (2000-3000 Ci/mmol). 70 μL of the kinase reaction mixture was dispensed into the well of a streptavidin coated FlashPlate™ (Cat. # SMP103, NEN, Boston, Mass.).
Test compound stock in 100% DMSO (1 μL) was added to the wells resulting in a final concentration of 1% DMSO in the reaction with a 100 μL final reaction volume. Each enzyme was diluted in 50 mM Tris-HCl pH=8.0, 0.1% BSA and 30 μL was added to each well to initiate the reaction. The reaction was incubated for one hour at 30° C. At the end of the 1 hr incubation, the reaction was terminated by aspirating the mixture from the plate and washing the wells twice with PBS containing 100 mM EDTA. The biotinylated peptide substrate became immobilized on the Flashplate™ and the incorporation of ^33P-γ-ATP was measured by reading the plate on a scintillation counter. Inhibition of the enzymatic activity was measured by observing a reduced amount of ^33P-γ-ATP incorporated into the immobilized peptide.
The HER2 construct consisted of a fusion of GST (Glutathione-S-Transferase), HIS6 Thrombin and the nucleotides encoding amino acids 679 to 1255 of HER-2 (Accession number M11730) (Proqinase, Freiburg, Germany). The assay used 200 ng of the N-terminal biotinylated peptide biotin-poly(GT) 4:1 (HER2) per well.
A maximum and minimum signal for the assay was determined on each plate. The percent inhibition of a test compound was calculated according to the formula: […]
For a series of test concentrations, the IC50 was derived by graphing percent inhibition against the log of the concentrations tested for a given compound with results shown in Table 2.

[4] = biological target: T2, EGFR kinase (GST fusion of intracellular portion of EGFR, NM_005228) (Homo sapiens, UniProt P00533); test: EGFR Kinase Assay; type: biochemical; conditions: GSTEGFR, ATP 5 μM, biotinylated polyGluTyr, 33P Flashplate; read-out: EGFR Inhibition (%) IC50
T2 construct: The intracellular portion of EGFR started at nucleotide 2189 (corresponding to amino acid 667) and ended at the termination codon; made in house; host or cells: Sf9 insect cells (baculovirus)
T2 sequence (P00533 669-1210 limits assumed): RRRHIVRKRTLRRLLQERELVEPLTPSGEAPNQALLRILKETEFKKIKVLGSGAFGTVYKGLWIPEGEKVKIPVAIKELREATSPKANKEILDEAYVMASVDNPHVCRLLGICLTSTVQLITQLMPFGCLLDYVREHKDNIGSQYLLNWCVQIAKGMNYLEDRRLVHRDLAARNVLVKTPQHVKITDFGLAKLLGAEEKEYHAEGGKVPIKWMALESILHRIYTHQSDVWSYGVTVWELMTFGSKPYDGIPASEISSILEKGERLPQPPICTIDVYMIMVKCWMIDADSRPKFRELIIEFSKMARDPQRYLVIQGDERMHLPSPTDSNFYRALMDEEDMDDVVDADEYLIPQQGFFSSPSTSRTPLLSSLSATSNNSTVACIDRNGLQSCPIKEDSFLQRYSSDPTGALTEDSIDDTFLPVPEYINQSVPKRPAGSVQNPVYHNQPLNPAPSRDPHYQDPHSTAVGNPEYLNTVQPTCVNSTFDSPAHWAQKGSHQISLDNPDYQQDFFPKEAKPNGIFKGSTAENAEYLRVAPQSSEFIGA
Excerpt: The portion was PCR amplified with primers that added the lambda attB sequences to each end, recombined into an entry vector, then into a GST destination vector (as described in Gateway Technologies Manual by Invitrogen Corporation, Carlsbad, Calif.).
The destination vector was recombined in the DH10BAC strain of bacteria to produce a bacmid. The bacmid was transfected into Sf9 cells and the supernatant containing the baculovirus was collected. The GSTEGFR protein was purified using large cultures of Sf9 cells infected with stock virus. After an appropriate period of time, the cells were collected and lysed. The GSTEGFR was then purified from the lysate on Glutathione-Sepharose columns (as described by Amersham Biosciences, Buckinghamshire, United Kingdom).
The free biotin was separated from the biotinylated polyGluTyr on a gel filtration column.
A mixture of a 10× kinase buffer (500 mM Tris at pH 8.0, 100 mM Magnesium Chloride and 1 mM Sodium Vanadate), DTT (1 mM final from 500 mM stock), ATP (5 μM final from 10 mM stock), biotinylated polyGluTyr (10 μg/μL stock), γ-^33P ATP (10 μCi/μL stock) and water was added to each well (90 μL/well) of a Streptavidin Flashplate (Perkin Elmer, Wellesley, Mass.).
Test compound in 100% DMSO (2 μL) was added to the appropriate wells. Diluted GSTEGFR (1:300 dilution in 50 mM Tris at pH 8.0 and 0.1% bovine serum albumin) (10 μL) was added to the wells to initiate the reactions.
The plates were incubated at 30° C. for 1 hr with shaking. The reacted contents were removed and the plates were sequentially washed three times with a 1×PBS stop buffer (300 μL without Magnesium and Calcium) and 100 mM EDTA. After the final wash, the same stop buffer (200 μL) was added to the wells. The plates were then sealed and read on the TopCount scintillation counter.
Test compounds were assayed in triplicate at 16 concentrations at half-log dilutions starting at 200 uM. A maximum and minimum signal for the assay was determined on each plate. The percent inhibition of a test compound was calculated according to the formula
For a series of test concentrations, the IC50 was derived by graphing percent inhibition against the log of the concentrations tested for a given compound.

| Compound | IC50 [1] [nM] | IC50 [2] [nM] | IC50 (N87 carcinoma cells) [nM] | IC50 [3] [nM] | IC50 [4] [nM] |
| --- | --- | --- | --- | --- | --- |
| CN(C)/N=C/c1c(N)ncnc1Nc1ccc2c(cnn2Cc2cccc(F)c2)c1 [Cpd 5, 5-(dimethyl-hydrazonomethyl)-N-[1-(3-fluoro-benzyl)-1H-indazol-5-yl]-pyrimidine-4,6-diamine] | 63 | 148 | 131 | 2.4 | 8.2 |
| CNN=Cc1c(N)ncnc1Nc1ccc2c(cnn2Cc2cccc(F)c2)c1 [Cpd 2, N-[1-(3-fluoro-benzyl)-1H-indazol-5-yl]-5-(methyl-hydrazonomethyl)-pyrimidine-4,6-diamine] | – | – | – | 83.6 | 12.4 |
| Nc1ncnc(Nc2ccc3c(cnn3Cc3cccc(F)c3)c2)c1C=NN1CCOCC1 [Cpd 4, N-[1-(3-fluoro-benzyl)-1H-indazol-5-yl]-5-(morpholin-4-yliminomethyl)-pyrimidine-4,6-diamine] | 30.5 | 122 | 90.5 | 6.6 | 16.5 |
| Nc1ncnc(Nc2ccc3c(cnn3Cc3cccc(F)c3)c2)c1C=NN1CCN(CCO)CC1 [Cpd 9, 2-[4-({4-amino-6-[1-(3-fluoro-benzyl)-1H-indazol-5-ylamino]-pyrimidin-5-ylmethylene}-amino)-piperazin-1-yl]-ethanol] | 13.5 | 58.5 | 58.4 | 8.37 | 9.77 |
| COC[C@@H]1CCCN1N=Cc1c(N)ncnc1Nc1ccc2c(cnn2Cc2cccc(F)c2)c1 [Cpd 8, N-[1-(3-fluoro-benzyl)-1H-indazol-5-yl]-5-{[(2S)-2-methoxymethyl-pyrrolidin-1-ylimino]-methyl}-pyrimidine-4,6-diamine] | – | – | – | 38.8 | 26.5 |
| CN1CCN(N=Cc2c(N)ncnc2Nc2ccc3c(cnn3Cc3cccc(F)c3)c2)CC1 [Cpd 6, N-[1-(3-fluoro-benzyl)-1H-indazol-5-yl]-5-[(4-methyl-piperazin-1-ylimino)-methyl]-pyrimidine-4,6-diamine] | – | – | – | 8.4 | 15.6 |
| Nc1ncnc(Nc2ccc3c(cnn3Cc3cccc(F)c3)c2)c1C=NN1CCCCC1 [Cpd 3, N-[1-(3-fluoro-benzyl)-1H-indazol-5-yl]-5-(piperidin-1-yliminomethyl)-pyrimidine-4,6-diamine] | 48.5 | 691 | 365 | 18.3 | – |
| Nc1ncnc(Nc2ccc3c(cnn3Cc3cccc(F)c3)c2)c1C=NNCC(F)(F)F [Cpd 10, N-[1-(3-fluoro-benzyl)-1H-indazol-5-yl]-5-[(2,2,2-trifluoro-ethyl)-hydrazonomethyl]-pyrimidine-4,6-diamine] | – | – | – | 19.8 | 52.9 |
| COC[C@H]1CCCN1N=Cc1c(N)ncnc1Nc1ccc2c(cnn2Cc2cccc(F)c2)c1 [Cpd 7, N-[1-(3-fluoro-benzyl)-1H-indazol-5-yl]-5-{[(2R)-2-methoxymethyl-pyrrolidin-1-ylimino]-methyl}-pyrimidine-4,6-diamine] | – | – | – | 72.2 | 31.2 |
| COc1ccc(NN=Cc2c(N)ncnc2Nc2ccc3c(cnn3Cc3cccc(F)c3)c2)cc1 [Cpd 1, N-[1-(3-fluoro-benzyl)-1H-indazol-5-yl]-5-[(4-methoxy-phenyl)-hydrazonomethyl]-pyrimidine-4,6-diamine] | – | – | – | 118 | 49 |
